The values below come from US5126365A, “Bicyclic derivatives” (Imperial Chemical Industries PLC, priority 1989, dated 1992).

The test system of test [1] is 5-LO. In words: Test b) in vitro heparinised human blood challenged with A23187, LTB4 radioimmunoassay (5-LO). Type of test: cell-based. As to conditions: A23187 challenge. The protocol:
b) An in vitro assay system involving incubating a test compound with heparinised human blood, prior to challenge with the calcium ionophore A23187 and then indirectly measuring the inhibitory effects on 5-LO by assaying the amount of LTB4 using the specific radioimmunoassay described by Carey and Forder (F. Carey and R. A. Forder, Brit. J. Pharmacol. 1985, 84, 34P) which involves the use of a protein-LTB4 conjugate produced using the procedure of Young et alia (Prostaglandins, 1983, 26(4), 605-613). The effects of a test compound on the enzyme cyclooxygenase (which is involved in the alternative metabolic pathway for arachidonic acid and gives rise to prostaglandins, thromboxanes and related metabolites) may be measured at the same time using the specific radioimmunoassay for thromboxane B2 (TxB2) described by Carey and Forder (see above). This test provides an indication of the effects of a test compound against 5-LO and also cyclooxygenase in the presence of blood cells and proteins. It permits the selectivity of the inhibitory effect on 5-LO or cyclooxygenase to be assessed.

The test system of test [2] is 5-LO. The test is described as follows: Test c) ex vivo assay: administration of test compound, blood collection, A23187 challenge, radioimmunoassay of LTB4. It counts as in vivo. The conditions noted are these: oral. The protocol:
c) An ex vivo assay system, which is a variation of test b) above, involving administration of a test compound (usually orally as the suspension produced when a solution of the test compound in dimethylsulphoxide is added to carboxymethylcellulose), blood collection, heparinisation, challenge with A23187 and radioimmunoassay of LTB4 and TxB2. This test provides an indication of the bioavailability of a test compound as an inhibitor of 5-LO or cyclooxygenase.

Test [3] concerns 5-LO. In words: Test g) liberation of LTB4 induced by zymosan within an air pouch in male rats. Type of test: in vivo. As to conditions: oral, rat zymosan air pouch, 3 hours. The protocol:
g) An in vivo system involving measuring the effects of a test compound administered orally against the liberation of LTB4 induced by zymosan within an air pouch generated within the subcutaneous tissue of the back of male rats. The rats are anaesthetised and air pouches are formed by the injection of sterile air (20 ml). A further injection of air (10 ml) is similarly given after 3 days. At 6 days after the initial air injection the test compound is administered (usually orally as the suspension produced when a solution of the test compound in dimethylsulphoxide is added to hydroxypropylmethylcellulose), followed by the intrapouch injection of zymosan (1 ml of a 1% suspension in physiological saline). After 3 hours the rats are killed, the air pouches are lavaged with physiological saline, and the specific radioimmunoassay described above is used to assay LTB4 in the washings. This test provides an indication of inhibitory effects against 5-LO in an inflammatory milieu.

Some results are limits rather than exact numbers.

In the case of `COC1(c2ccc3c(c2)OC(c2ccc4ccccc4c2)O3)CCOCC1` (stereo not drawn) [5-(4-methoxytetrahydropyran-4-yl)-2-(naphth-2-yl)benzo-1,3-dioxole], in the test on 5-LO [1], half-maximal inhibition (IC50) required 300 nM. Besides, the ED50 in the test on 5-LO [2] is 5 mg/kg; with 5-LO [3], less than 3 mg/kg.
